{"source": "patent US11053204B2", "about": "“Pyrimidinyloxy benzene derivatives as herbicides” (FMC Corporation, priority 2015, dated 2021)", "type_in_all_cases": "in vivo", "key": {"[1]": {"tested_on": "nutsedge, yellow (yellow nutsedge, Cyperus esculentus)", "assay": "Test C postemergence, plant response rating", "conditions": "for Plant response rating, Nutsedge, Yellow: scale 0 to 100; for Nutsedge, Yellow plant response rating: scale 0 to 100 (0 no effect, 100 complete control)", "text": "(§1) Seeds of plant species selected from blackgrass (Alopecurus myosuroides), ryegrass, Italian (Italian ryegrass, Lolium multiflorum), wheat (winter wheat, Triticum aestivum), galium (catchweed bedstraw, Galium aparine), corn (Zea mays), crabgrass, large (large crabgrass, Digitaria sanguinalis), foxtail, giant (giant foxtail, Setaria faberii), johnsongrass (Sorghum halepense), lambsquarters (Chenopodium album), morningglory (Ipomoea coccinea), nutsedge, yellow (yellow nutsedge, Cyperus esculentus), pigweed (Amaranthus retroflexus), ragweed (common ragweed, Ambrosia elatior), soybean (Glycine max), barnyardgrass (Echinochloa crus-galli), oilseed rape (Brassica napus), pigweed, palmer (palmer pigweed, Amaranthus palmeri), waterhemp (common waterhemp, Amaranthus rudis), velvetleaf (Abutilon theophrasti), kochia (Kochia scoparia), surinam grass (Brachiaria decumbens), nightshade (eastern black nightshade, Solanum ptycanthum), wild poinsettia (Euphorbia heterophylla), windgrass (Apera spica-venti), and oat, wild (wild oat Avena fatua), were planted into a blend of loam soil and sand or a silt loam soil and treated preemergence with test chemicals formulated in a non-phytotoxic solvent mixture which included a surfactant.\n(§2) At the same time, plants selected from these crop and weed species and also chickweed (common chickweed, Stellaria media), buckwheat, wild (wild buckwheat, Polygonum convolvulus), wild mustard (Sinapis arvensis), field poppy (Papaver rhoeas), field violet (Viola arvensis), geranium, cutleaf (cutleaf geranium, Geranium dissectum), Canada thistle (Cirsium arvense), and speedwell (bird's-eye speedwell, Veronica persica), were planted in pots containing Sunshine Redi-Earth® planting medium comprising spaghnum peat moss, vermiculite, starter nutrients and dolomitic limestone and treated with postemergence applications of test chemicals formulated in the same manner. Plants ranged in height from 2 to 18 cm (1- to 4-leaf stage) for postemergence treatments. Treated plants and controls were maintained in a greenhouse for 13 to 15 d, after which time all species were compared to controls and visually evaluated. Plant response ratings, summarized in Table C, are based on a scale of 0 to 100 where 0 is no effect and 100 is complete control. A dash (-) response means no test result."}, "[2]": {"tested_on": "foxtail, giant (giant foxtail, Setaria faberii)", "assay": "Test C postemergence, plant response rating", "conditions": "for Plant response rating, Foxtail, Giant: scale 0 to 100; for Foxtail, Giant plant response rating: scale 0 to 100 (0 no effect, 100 complete control)", "text": "as §1, §2"}, "corn (Zea mays)": {"tested_on": "corn (Zea mays)", "assay": "Test C postemergence, plant response rating", "conditions": "for Plant response rating, Corn: scale 0 to 100; for Corn plant response rating: scale 0 to 100 (0 no effect, 100 complete control)", "text": "as §1, §2"}, "[3]": {"tested_on": "wheat (winter wheat, Triticum aestivum)", "assay": "Test C postemergence, plant response rating", "conditions": "for Plant response rating, Wheat: scale 0 to 100; for Wheat plant response rating: scale 0 to 100 (0 no effect, 100 complete control)", "text": "as §1, §2"}, "[4]": {"tested_on": "oilseed rape (Brassica napus)", "assay": "Test C postemergence, plant response rating", "conditions": "for Plant response rating, Oilseed Rape: scale 0 to 100; for Oilseed Rape plant response rating: scale 0 to 100 (0 no effect, 100 complete control)", "text": "as §1, §2"}, "[5]": {"tested_on": "ryegrass, Italian (Italian ryegrass, Lolium multiflorum)", "assay": "Test C postemergence, plant response rating", "conditions": "for Plant response rating, Ryegrass, Italian: scale 0 to 100; for Ryegrass, Italian plant response rating: scale 0 to 100 (0 no effect, 100 complete control)", "text": "as §1, §2"}, "[6]": {"tested_on": "blackgrass (Alopecurus myosuroides)", "assay": "Test C postemergence, plant response rating", "conditions": "for Plant response rating, Blackgrass: scale 0 to 100; for Blackgrass plant response rating: scale 0 to 100 (0 no effect, 100 complete control)", "text": "as §1, §2"}, "[7]": {"tested_on": "chickweed (common chickweed, Stellaria media)", "assay": "Test C postemergence, plant response rating", "conditions": "for Plant response rating, Chickweed: scale 0 to 100; for Chickweed plant response rating: scale 0 to 100 (0 no effect, 100 complete control)", "text": "as §1, §2"}, "[8]": {"tested_on": "oat, wild (wild oat Avena fatua)", "assay": "Test C postemergence, plant response rating", "conditions": "for Plant response rating, Oat, Wild: scale 0 to 100; for Oat, Wild plant response rating: scale 0 to 100 (0 no effect, 100 complete control)", "text": "as §1, §2"}, "[9]": {"tested_on": "crabgrass, large (large crabgrass, Digitaria sanguinalis)", "assay": "Test C postemergence, plant response rating", "conditions": "for Plant response rating, Crabgrass, Large: scale 0 to 100; for Crabgrass, Large plant response rating: scale 0 to 100 (0 no effect, 100 complete control)", "text": "as §1, §2"}, "kochia (Kochia scoparia) [10]": {"tested_on": "kochia (Kochia scoparia)", "assay": "Test C postemergence, plant response rating", "conditions": "for Plant response rating, Kochia: scale 0 to 100; for Kochia plant response rating: scale 0 to 100 (0 no effect, 100 complete control)", "text": "as §1, §2"}, "soybean (Glycine max)": {"tested_on": "soybean (Glycine max)", "assay": "Test C postemergence, plant response rating", "conditions": "for Plant response rating, Soybean: scale 0 to 100; for Soybean plant response rating: scale 0 to 100 (0 no effect, 100 complete control)", "text": "as §1, §2"}, "[11]": {"tested_on": "lambsquarters (Chenopodium album)", "assay": "Test C postemergence, plant response rating", "conditions": "for Plant response rating, Lambsquarters: scale 0 to 100; for Lambsquarters plant response rating: scale 0 to 100 (0 no effect, 100 complete control)", "text": "as §1, §2"}, "[12]": {"tested_on": "morningglory (Ipomoea coccinea)", "assay": "Test C postemergence, plant response rating", "conditions": "for Plant response rating, Morningglory: scale 0 to 100; for Morningglory plant response rating: scale 0 to 100 (0 no effect, 100 complete control)", "text": "as §1, §2"}, "[13]": {"tested_on": "barnyardgrass (Echinochloa crus-galli)", "assay": "Test C postemergence, plant response rating", "conditions": "for Plant response rating, Barnyardgrass: scale 0 to 100; for Barnyardgrass plant response rating: scale 0 to 100 (0 no effect, 100 complete control)", "text": "as §1, §2"}, "kochia (Kochia scoparia) [14]": {"tested_on": "kochia (Kochia scoparia)", "assay": "Test A preemergence, visual injury rating", "conditions": "0 to 100 scale (0 no effect, 100 complete control)", "method_in_brief": "(§3)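 Greenhouse pot test, loam/sand soil. Formulation: non-phytotoxic solvent mix plus surfactant. Pre: directed spray onto soil after sowing. Post: plants at 1–2 leaf, 2–10 cm. Rated visually vs untreated controls at ~10 d, 0 (no effect) to 100 (complete control).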"}, "[15]": {"tested_on": "barnyardgrass (Echinochloa crus-galli)", "assay": "Test A preemergence, visual injury rating", "conditions": "0 to 100 scale (0 no effect, 100 complete control)", "method_in_brief": "as §3"}}, "data": [{"smiles": "N#CCCOC(=O)c1c(Br)cccc1Oc1ncc(Cl)cn1", "note": "[Compound 7]", "values": [{"measurement": "Plant response rating, Nutsedge, Yellow", "setting": "[1]; 16 g ai/ha", "result": 0}, {"measurement": "Plant response rating, Nutsedge, Yellow", "setting": "[1]; 31 g ai/ha", "result": 0}, {"measurement": "Nutsedge, Yellow plant response rating", "setting": "[1]; 62 g ai/ha", "result": 5}, {"measurement": "Nutsedge, Yellow plant response rating", "setting": "[1]; 125 g ai/ha", "result": 5}, {"measurement": "Plant response rating, Foxtail, Giant", "setting": "[2]; 16 g ai/ha", "result": 5}, {"measurement": "Plant response rating, Foxtail, Giant", "setting": "[2]; 31 g ai/ha", "result": 5}, {"measurement": "Foxtail, Giant plant response rating", "setting": "[2]; 62 g ai/ha", "result": 10}, {"measurement": "Foxtail, Giant plant response rating", "setting": "[2]; 125 g ai/ha", "result": 15}, {"measurement": "Plant response rating, Corn", "setting": "corn (Zea mays); 16 g ai/ha", "result": 5}, {"measurement": "Plant response rating, Corn", "setting": "corn (Zea mays); 31 g ai/ha", "result": 10}, {"measurement": "Corn plant response rating", "setting": "corn (Zea mays); 62 g ai/ha", "result": 10}, {"measurement": "Corn plant response rating", "setting": "corn (Zea mays); 125 g ai/ha", "result": 15}, {"measurement": "Plant response rating, Wheat", "setting": "[3]; 16 g ai/ha", "result": 0}, {"measurement": "Plant response rating, Wheat", "setting": "[3]; 31 g ai/ha", "result": 0}, {"measurement": "Wheat plant response rating", "setting": "[3]; 62 g ai/ha", "result": 5}, {"measurement": "Wheat plant response rating", "setting": "[3]; 125 g ai/ha", "result": 5}, {"measurement": "Plant response rating, Oilseed Rape", "setting": "[4]; 16 g ai/ha", "result": 0}, {"measurement": "Plant response rating, Oilseed Rape", "setting": "[4]; 31 g ai/ha", "result": 0}, {"measurement": "Oilseed Rape plant response rating", "setting": "[4]; 62 g ai/ha", "result": 0}, {"measurement": "Oilseed Rape plant response rating", "setting": "[4]; 125 g ai/ha", "result": 5}, {"measurement": "Plant response rating, Ryegrass, Italian", "setting": "[5]; 16 g ai/ha", "result": 10}, {"measurement": "Plant response rating, Ryegrass, Italian", "setting": "[5]; 31 g ai/ha", "result": 0}, {"measurement": "Ryegrass, Italian plant response rating", "setting": "[5]; 62 g ai/ha", "result": 30}, {"measurement": "Ryegrass, Italian plant response rating", "setting": "[5]; 125 g ai/ha", "result": 30}, {"measurement": "Plant response rating, Blackgrass", "setting": "[6]; 16 g ai/ha", "result": 0}, {"measurement": "Plant response rating, Blackgrass", "setting": "[6]; 31 g ai/ha", "result": 0}, {"measurement": "Blackgrass plant response rating", "setting": "[6]; 62 g ai/ha", "result": 0}, {"measurement": "Blackgrass plant response rating", "setting": "[6]; 125 g ai/ha", "result": 5}, {"measurement": "Plant response rating, Chickweed", "setting": "[7]; 16 g ai/ha", "result": 5}, {"measurement": "Plant response rating, Chickweed", "setting": "[7]; 31 g ai/ha", "result": 5}, {"measurement": "Chickweed plant response rating", "setting": "[7]; 62 g ai/ha", "result": 30}, {"measurement": "Chickweed plant response rating", "setting": "[7]; 125 g ai/ha", "result": 50}, {"measurement": "Plant response rating, Oat, Wild", "setting": "[8]; 16 g ai/ha", "result": 0}, {"measurement": "Plant response rating, Oat, Wild", "setting": "[8]; 31 g ai/ha", "result": 0}, {"measurement": "Oat, Wild plant response rating", "setting": "[8]; 62 g ai/ha", "result": 5}, {"measurement": "Oat, Wild plant response rating", "setting": "[8]; 125 g ai/ha", "result": 5}, {"measurement": "Plant response rating, Crabgrass, Large", "setting": "[9]; 16 g ai/ha", "result": 5}, {"measurement": "Plant response rating, Crabgrass, Large", "setting": "[9]; 31 g ai/ha", "result": 5}, {"measurement": "Crabgrass, Large plant response rating", "setting": "[9]; 62 g ai/ha", "result": 20}, {"measurement": "Crabgrass, Large plant response rating", "setting": "[9]; 125 g ai/ha", "result": 15}, {"measurement": "Plant response rating, Kochia", "setting": "kochia (Kochia scoparia) [10]; 16 g ai/ha", "result": 0}, {"measurement": "Plant response rating, Kochia", "setting": "kochia (Kochia scoparia) [10]; 31 g ai/ha", "result": 30}, {"measurement": "Kochia plant response rating", "setting": "kochia (Kochia scoparia) [10]; 62 g ai/ha", "result": 25}, {"measurement": "Kochia plant response rating", "setting": "kochia (Kochia scoparia) [10]; 125 g ai/ha", "result": 20}, {"measurement": "Plant response rating, Soybean", "setting": "soybean (Glycine max); 16 g ai/ha", "result": 25}, {"measurement": "Plant response rating, Soybean", "setting": "soybean (Glycine max); 31 g ai/ha", "result": 25}, {"measurement": "Soybean plant response rating", "setting": "soybean (Glycine max); 62 g ai/ha", "result": 40}, {"measurement": "Soybean plant response rating", "setting": "soybean (Glycine max); 125 g ai/ha", "result": 70}, {"measurement": "Plant response rating, Lambsquarters", "setting": "[11]; 16 g ai/ha", "result": 5}, {"measurement": "Plant response rating, Lambsquarters", "setting": "[11]; 31 g ai/ha", "result": 25}, {"measurement": "Lambsquarters plant response rating", "setting": "[11]; 62 g ai/ha", "result": 30}, {"measurement": "Lambsquarters plant response rating", "setting": "[11]; 125 g ai/ha", "result": 55}, {"measurement": "Plant response rating, Morningglory", "setting": "[12]; 16 g ai/ha", "result": 5}, {"measurement": "Plant response rating, Morningglory", "setting": "[12]; 31 g ai/ha", "result": 25}, {"measurement": "Morningglory plant response rating", "setting": "[12]; 62 g ai/ha", "result": 40}, {"measurement": "Morningglory plant response rating", "setting": "[12]; 125 g ai/ha", "result": 55}, {"measurement": "Plant response rating, Barnyardgrass", "setting": "[13]; 16 g ai/ha", "result": 5}, {"measurement": "Plant response rating, Barnyardgrass", "setting": "[13]; 31 g ai/ha", "result": 5}, {"measurement": "Barnyardgrass plant response rating", "setting": "[13]; 62 g ai/ha", "result": 15}, {"measurement": "Barnyardgrass plant response rating", "setting": "[13]; 125 g ai/ha", "result": 10}, {"measurement": "Kochia plant response rating", "setting": "kochia (Kochia scoparia) [14]; 125 g ai/ha", "result": 50}, {"measurement": "Kochia plant response rating", "setting": "kochia (Kochia scoparia) [14]; 500 g ai/ha", "result": 100}, {"measurement": "Barnyardgrass plant response rating", "setting": "[15]; 125 g ai/ha", "result": 50}, {"measurement": "Barnyardgrass plant response rating", "setting": "[15]; 500 g ai/ha", "result": 100}]}]}
